Drawing on patent US10640495B2, “Heterocycle derivatives having TrkA inhibitory activity” (Shionogi & Co., Ltd., priority 2015, dated 2020), this text covers clearance and IC50 for 47 molecules.

Data set [1] can be described thus: Clearance test, intravenous administration in SD rats (Test Example 7). The data set is classed as in vivo. The following applies: rat, plasma, intravenous administration 0.5 mg/kg or 1 μmol/kg, read-out: Total Clearance (CLtot). The protocol: Materials and Methods for Experiments • (1) Experimental animals: SD rats were used. • (2) Rearing condition: SD rats were allowed free access to solid feed and sterilized tap water. • (3) Setting of dosage and grouping: Intravenous administration was performed with the predetermined dosage. Grouping was set as below. (Dosage is changed per compound) Intravenous administration 0.5 mg/kg or 1 μmol/kg (n=2) • (4) Preparation of administration solutions: Administration was performed after solubilization by using dimethylacetamide/propylene glycol=1/1 or dimethyl sulfoxide/propylene glycol=1/1 as the solvent. • (5) Routes of administration: Intravenous administration was performed from caudal vein by syringes with needle. • (6) Evaluation items: Blood was collected serially and concentration of a compound of the present invention in plasma was measured by LC/MS/MS. • (7) Statistical analysis: About transition of concentration of a compound of the present invention in plasma, Total Clearance (CLtot) of a compound of the present invention was calculated by non-linear least-squares method program, WinNonlin (a registered trademark).

The next data set concerns the target human TrkA (Homo sapiens (Human), UniProt P04629). In words: Human TrkA inhibition assay (Test Example 2). In kind it is biochemical. In a few lines: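 Recombinant TrkA (1 nmol/L) was preincubated 15 min at room temperature with compound in HEPES/MgCl2/DTT buffer, then reacted with FL-peptide 27 (1.5 μmol/L) and ATP (500 μmol/L) for 120 min at 37 °C. After EDTA stop, substrate phosphorylation was read by microfluidic mobility shift. IC50 came from logistic regression over 3-fold dilution series.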

[2] abbreviates: human TrkA 1 nmol/L, ATP 500 μmol/L, 120 min at 37° C., read-out: IC50 values (TrkA phosphorylation inhibition).
The mark [3] stands for this setting: Table 156, human TrkA inhibition, read-out: IC50.
[4] abbreviates: Table 157, human TrkA inhibition, read-out: IC50.

pIC50: −log10 of the molar value. Like-named read-outs stand apart in the source and are kept apart here. A value given as a limit tells only on which side of the number the result lay.

Chain of human TrkA (P04629 440-796): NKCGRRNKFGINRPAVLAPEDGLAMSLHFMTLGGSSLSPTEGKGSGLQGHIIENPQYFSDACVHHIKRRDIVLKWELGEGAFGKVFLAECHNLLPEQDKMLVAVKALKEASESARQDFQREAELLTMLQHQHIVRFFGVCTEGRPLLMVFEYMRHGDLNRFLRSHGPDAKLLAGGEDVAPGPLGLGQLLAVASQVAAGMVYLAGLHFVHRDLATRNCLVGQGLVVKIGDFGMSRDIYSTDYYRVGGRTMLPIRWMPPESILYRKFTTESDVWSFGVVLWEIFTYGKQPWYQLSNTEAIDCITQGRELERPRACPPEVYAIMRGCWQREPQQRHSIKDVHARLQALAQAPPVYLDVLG

A word on the clearance: it is the volume of plasma or blood freed of the substance per unit of time. As a reminder, the pIC50 is −log10 of the IC50, conventionally taken in molar units. With `COCCN1C[C@@H](NC(=O)Nc2c(C)c(-c3cnc4c(cnn4C)c3)nn2-c2ccccc2)[C@H](c2ccnc(F)c2)O1` (racemic) [Compound I-40], in data set [1], the clearance came to 2.82 mL/min/kg. Also, on human TrkA (setting [2]), the pIC50 is 8.80. Regarding `CCN1C[C@@H](NC(=O)Nc2c(C)c(OCC3CN(C(C)=O)CCO3)nn2-c2ccccc2)[C@H](c2ccc(F)c(F)c2)O1` (stereo partly drawn) [Compound I-546], the negative-log IC50 (pIC50) at human TrkA (setting [3]) is greater than 7.00. The same measure, in the same setting: for `CCN1C[C@@H](NC(=O)Nc2c(C)c(OCC3CN(C)CCO3)nn2-c2ccccc2)[C@H](c2ccc(F)c(F)c2)O1` (stereo partly drawn) [Compound I-548] the value was greater than 7.00. On to `COCCN1C[C@@H](NC(=O)Nc2c(C)c(OCCCN(C)C)nn2-c2ccccc2)[C@H](c2ccc(F)c(F)c2)O1` [Compound I-552], for which the pIC50 on human TrkA (setting [2]) was 8.77. For the molecule `COCC[C@@H]1C[C@@H](NC(=O)Nc2c(C)c(-c3cnc(N4CC(OC)C4)nc3)nn2-c2ccccc2)[C@H](c2ccnc(F)c2)O1` [Compound I-553], the pIC50 at human TrkA (setting [3]) was greater than 7.00. `COCCN1C[C@@H](NC(=O)Nc2c(C)c(-c3cnc(N4CC(OC)C4)nc3)nn2-c2ccccc2)[C@H](c2ccnc(F)c2)O1` [Compound I-555]: the pIC50 on human TrkA (setting [2]) was 9.03. Consider `COCCN1C[C@@H](NC(=O)Nc2c(C)c(-c3ccc(C)nc3)nn2-c2ccccc2)[C@H](c2ccc(F)c(F)c2)O1` [Compound I-556], for which, at human TrkA (setting [3]), the pIC50 was greater than 7.00. On the same count and under the same terms, in the case of `COCCN1C[C@@H](NC(=O)Nc2c(C)c(-c3ccnc(C(=O)OC)c3)nn2-c2ccccc2)[C@H](c2ccc(F)c(F)c2)O1` [Compound I-557] it was greater than 7.00; in that of `COCCN1C[C@@H](NC(=O)Nc2c(C)c(-c3ccc(N4CC(OC)C4)nc3)nn2-c2ccccc2)[C@H](c2ccc(F)c(F)c2)O1` [Compound I-558], greater than 7.00; in that of `COCCN1C[C@@H](NC(=O)Nc2c(C)c(OCCN(C)C)nn2-c2ccccc2)[C@H](c2ccc(F)c(F)c2)O1` [Compound I-572], greater than 7.00.

Turning to `COCCN1C[C@@H](NC(=O)Nc2c(C)c(OC3CN(C(=O)OC(C)(C)C)C3)nn2-c2ccccc2)[C@H](c2ccc(F)c(F)c2)O1` [Compound I-573], the pIC50 on human TrkA (setting [3]) was greater than 7.00. Still for that read-out and setting: in the case of `COCCN1C[C@@H](NC(=O)Nc2c(C)c(OC3CNC3)nn2-c2ccccc2)[C@H](c2ccc(F)c(F)c2)O1` [Compound I-574] it was greater than 7.00; in that of `COCCN1C[C@@H](NC(=O)Nc2c(C)c(OCC3CN(C)CCO3)nn2-c2ccccc2)[C@H](c2ccc(F)c(F)c2)O1` (stereo partly drawn) [Compound I-580], greater than 7.00. Turning to `COCCN1C[C@@H](NC(=O)Nc2c(C)c(-c3cnc(N4CC[C@H](OC)C4)nc3)nn2-c2ccccc2)[C@H](c2ccnc(F)c2)O1` [Compound I-584], the negative-log IC50 (pIC50) at human TrkA (setting [4]) is greater than 7.00. The same measure, in the same setting: in the case of `COCCN1C[C@@H](NC(=O)Nc2c(C)c(-c3cnc(N4CC[C@@H](OC)C4)nc3)nn2-c2ccccc2)[C@H](c2ccnc(F)c2)O1` [Compound I-585] it was greater than 7.00; in that of `COCCN1C[C@@H](NC(=O)Nc2c(C)c(-c3cnc(N4CC[C@H](N(C)C)C4)nc3)nn2-c2ccccc2)[C@H](c2ccnc(F)c2)O1` [Compound I-586], greater than 7.00; in that of `COCCN1C[C@@H](NC(=O)Nc2c(C)c(-c3cnc(N4CC[C@@H](N(C)C)C4)nc3)nn2-c2ccccc2)[C@H](c2ccnc(F)c2)O1` [Compound I-587], greater than 7.00. Same read-out and setting: in the case of `COCCN1C[C@@H](NC(=O)Nc2c(C)c(-c3cnc(N4C[C@H]5C[C@@H]4CO5)nc3)nn2-c2ccccc2)[C@H](c2ccnc(F)c2)O1` [Compound I-590] it was greater than 7.00; in that of `COCCN1C[C@@H](NC(=O)Nc2c(C)c(-c3cnc(N4C[C@@H]5C[C@H]4CO5)nc3)nn2-c2ccccc2)[C@H](c2ccnc(F)c2)O1` [Compound I-591], greater than 7.00; in that of `COCCN1C[C@@H](NC(=O)Nc2c(C)c(-c3cnc(N4CCN(C)[C@H](C)C4)nc3)nn2-c2ccccc2)[C@H](c2ccnc(F)c2)O1` [Compound I-592], greater than 7.00. In the case of `COCCN1C[C@@H](NC(=O)Nc2c(C)c(-c3cnc(N4CCN(C)[C@@H](C)C4)nc3)nn2-c2ccccc2)[C@H](c2ccnc(F)c2)O1` [Compound I-593], the pIC50 on human TrkA (setting [4]) is greater than 7.00. Same read-out and setting: for `COCCN1C[C@@H](NC(=O)Nc2c(C)c(-c3cnc(N4CCN(C)C[C@H]4C)nc3)nn2-c2ccccc2)[C@H](c2ccnc(F)c2)O1` [Compound I-594] the value was greater than 7.00; for `CNC(=O)c1cc(-c2nn(-c3ccccc3)c(NC(=O)N[C@@H]3CN(CCOC)O[C@H]3c3ccc(F)c(F)c3)c2C)ccn1` [Compound I-595], greater than 7.00; for `CCN1C[C@@H](NC(=O)Nc2c(C)c(OCCC3CCN(C(=O)OC(C)(C)C)C3)nn2-c2ccccc2)[C@H](c2ccc(F)c(F)c2)O1` (stereo partly drawn) [Compound I-597], greater than 7.00.

In the case of `COCCN1C[C@@H](NC(=O)Nc2c(C)c(-c3cnc(N4CCN(C)CC4)nc3)nn2-c2ccccc2)[C@H](c2ccc(F)c(F)c2)O1` [Compound I-598], the pIC50 on human TrkA (setting [4]) is greater than 7.00. Regarding `CCN1C[C@@H](NC(=O)Nc2c(C)c(OCCC3CCNC3)nn2-c2ccccc2)[C@H](c2ccc(F)c(F)c2)O1` (stereo partly drawn) [Compound I-599], the pIC50 on human TrkA (setting [4]) was greater than 7.00. Still for that read-out and setting: in the case of `COCCN1C[C@@H](NC(=O)Nc2c(C)c(OC3CN(C)C3)nn2-c2ccccc2)[C@H](c2ccc(F)c(F)c2)O1` [Compound I-600] it was greater than 7.00. Turning to `COCCN1C[C@@H](NC(=O)Nc2c(C)c(OC3CCN(C(=O)OC(C)(C)C)CC3)nn2-c2ccccc2)[C@H](c2ccc(F)c(F)c2)O1` [Compound I-601], the pIC50 at human TrkA (setting [4]) was greater than 7.00.

Regarding `COCCN1C[C@@H](NC(=O)Nc2c(C)c(OC3CCNCC3)nn2-c2ccccc2)[C@H](c2ccc(F)c(F)c2)O1` [Compound I-602], the pIC50 at human TrkA (setting [4]) is greater than 7.00.

With `COCCN1C[C@@H](NC(=O)Nc2c(C)c(OC3CCN(C)CC3)nn2-c2ccccc2)[C@H](c2ccc(F)c(F)c2)O1` [Compound I-603], on human TrkA (setting [4]), the pIC50 was greater than 7.00. On the same count and under the same terms, for `CCN1CCC(Oc2nn(-c3ccccc3)c(NC(=O)N[C@@H]3CN(CCOC)O[C@H]3c3ccc(F)c(F)c3)c2C)CC1` [Compound I-604] the value was greater than 7.00.

As for `COCCN1C[C@@H](NC(=O)Nc2c(C)c(CO[Si](C)(C)C(C)(C)C)nn2-c2ccccc2)[C@H](c2ccc(F)c(F)c2)O1` [Compound I-605], on human TrkA (setting [4]), the negative logarithm of the IC50 (pIC50) was 6.00 to 7.00. Still for that read-out and setting: in the case of `COCCN1C[C@@H](NC(=O)Nc2c(C)c(OCC3COC(C)(C)O3)nn2-c2ccccc2)[C@H](c2ccc(F)c(F)c2)O1` (stereo partly drawn) [Compound I-614] it was greater than 7.00. The same measure, in the same setting: in the case of `COCCN1C[C@@H](NC(=O)Nc2c(C)c(OCC(O)CO)nn2-c2ccccc2)[C@H](c2ccc(F)c(F)c2)O1` (stereo partly drawn) [Compound I-615] it was greater than 7.00; in that of `COCCN1C[C@@H](NC(=O)Nc2c(C)c(-c3ccnc(CO)c3)nn2-c2ccccc2)[C@H](c2ccc(F)c(F)c2)O1` [Compound I-617], greater than 7.00. The same measure, in the same setting: in the case of `COCCN1C[C@@H](NC(=O)Nc2c(C)c(-c3ccnc(CN(C)C)c3)nn2-c2ccccc2)[C@H](c2ccc(F)c(F)c2)O1` [Compound I-618] it was greater than 7.00. Take `COCCN1C[C@@H](NC(=O)Nc2c(C)c(CO)nn2-c2ccccc2)[C@H](c2ccc(F)c(F)c2)O1` [Compound I-619]: the pIC50 at human TrkA (setting [4]) was greater than 7.00. As to `COCCN1C[C@@H](NC(=O)Nc2c(C)c(-c3cnc(OC)c(COC(C)=O)c3)nn2-c2ccccc2)[C@H](c2ccc(F)c(F)c2)O1` [Compound I-636], the pIC50 at human TrkA (setting [4]) was greater than 7.00. On the same count and under the same terms, in the case of `COCCN1C[C@@H](NC(=O)Nc2c(C)c(-c3cnc(OC)c(CO)c3)nn2-c2ccccc2)[C@H](c2ccc(F)c(F)c2)O1` [Compound I-637] it was greater than 7.00. As for `COCCN1C[C@@H](NC(=O)Nc2c(C)c(-c3ccc(CN(C)C)nc3)nn2-c2ccccc2)[C@H](c2ccc(F)c(F)c2)O1` [Compound I-638], the negative-log IC50 (pIC50) at human TrkA (setting [2]) is 8.85.

On to `COCCN1C[C@@H](NC(=O)Nc2c(C)c(-c3cnc(OC)c(CN(C)C)c3)nn2-c2ccccc2)[C@H](c2ccc(F)c(F)c2)O1` [Compound I-639], for which the negative-log IC50 (pIC50) at human TrkA (setting [2]) is 9.28.

Take `COCCN1C[C@@H](NC(=O)Nc2c(C)c(CN(C)C)nn2-c2ccccc2)[C@H](c2ccc(F)c(F)c2)O1` [Compound I-640]: the negative logarithm of the IC50 (pIC50) at human TrkA (setting [4]) was 6.00 to 7.00. Turning to `COCCN1C[C@@H](NC(=O)Nc2c(C)c(CCN(C)C)nn2-c2ccccc2)[C@H](c2ccc(F)c(F)c2)O1` [Compound I-641], on human TrkA (setting [4]), the negative logarithm of the IC50 (pIC50) is greater than 7.00.

Regarding `COCCN1C[C@@H](NC(=O)Nc2c(C)c(-c3ccnc(CCN(C)C)c3)nn2-c2ccccc2)[C@H](c2ccc(F)c(F)c2)O1` [Compound I-643], the pIC50 on human TrkA (setting [4]) was greater than 7.00. Still for that read-out and setting: for `CCN1C[C@@H](NC(=O)Nc2c(C)c(OCC3CNC(=O)O3)nn2-c2ccccc2)[C@H](c2ccc(F)c(F)c2)O1` (stereo partly drawn) [Compound I-675] the value was greater than 7.00. The same measure, in the same setting: for `CCN1C[C@@H](NC(=O)Nc2c(C)c(OC(C)C3CCN(C)CC3)nn2-c2ccccc2)[C@H](c2ccc(F)c(F)c2)O1` (stereo partly drawn) [Compound I-679] the value was greater than 7.00; for `COCCN1C[C@@H](NC(=O)Nc2c(Br)c(-c3cnc(OC)nc3)nn2-c2ccccc2)[C@H](c2ccnc(F)c2)O1` [Compound I-680], greater than 7.00.
